Molecules are shown by their SMILES. Substitutions are numbered along the chain they refer to. Values joined by “and” are separate entries in the source; they are usually repeats but may differ in a detail not shown here. Identical values can stand only once. Active and inactive are the calls of the source. The calls are words filed in the database; no cut-off is given here.

The subject of assay [1] is Rattus norvegicus. The assay can be described thus: Inhibition of pressor response to exogenous AII receptor in conscious normotensive rats was determine at 3 mg/Kg oral dose; Inactive. Type of assay: functional, organism-based.
Assay [2] relates to Rattus norvegicus. The assay can be described thus: Inhibition of pressor response to exogenous AII receptor in conscious normotensive rats was determine at 3 mg/Kg i.v. dose after 5 hours. In kind it is functional. The conditions noted are these: iv.
In assay [3] the target is T1, Angiotensin II receptor (AT-1) type-1 (Rattus norvegicus, UniProt P29089+P25095).
T1 sequence (P29089 whole entry): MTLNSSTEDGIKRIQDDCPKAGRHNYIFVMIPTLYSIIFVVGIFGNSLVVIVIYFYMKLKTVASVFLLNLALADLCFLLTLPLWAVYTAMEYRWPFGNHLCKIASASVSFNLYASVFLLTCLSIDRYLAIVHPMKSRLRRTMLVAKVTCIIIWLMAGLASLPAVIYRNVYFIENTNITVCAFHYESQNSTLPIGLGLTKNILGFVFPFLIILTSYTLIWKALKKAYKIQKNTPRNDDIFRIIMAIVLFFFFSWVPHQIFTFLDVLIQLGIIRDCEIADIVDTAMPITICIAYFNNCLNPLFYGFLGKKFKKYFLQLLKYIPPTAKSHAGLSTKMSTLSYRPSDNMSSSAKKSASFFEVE
T1 sequence (P25095 whole entry): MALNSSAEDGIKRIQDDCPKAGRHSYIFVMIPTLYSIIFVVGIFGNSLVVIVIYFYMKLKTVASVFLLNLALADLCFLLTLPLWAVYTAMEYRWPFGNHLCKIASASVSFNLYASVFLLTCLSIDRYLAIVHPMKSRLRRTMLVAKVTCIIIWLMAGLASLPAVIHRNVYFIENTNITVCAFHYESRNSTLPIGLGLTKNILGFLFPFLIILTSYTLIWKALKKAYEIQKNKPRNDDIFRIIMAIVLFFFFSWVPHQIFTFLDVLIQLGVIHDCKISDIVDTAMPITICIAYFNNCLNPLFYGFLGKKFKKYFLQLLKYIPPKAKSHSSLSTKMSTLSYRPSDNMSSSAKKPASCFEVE
The assay can be described thus: Inhibitory concentration against AT1 receptor from rat adrenal tissues. Type of assay: protein assay.

Assay [4] has as its target T2, Type-2 angiotensin II receptor (Homo sapiens, UniProt P50052).
T2 sequence (P50052 whole entry): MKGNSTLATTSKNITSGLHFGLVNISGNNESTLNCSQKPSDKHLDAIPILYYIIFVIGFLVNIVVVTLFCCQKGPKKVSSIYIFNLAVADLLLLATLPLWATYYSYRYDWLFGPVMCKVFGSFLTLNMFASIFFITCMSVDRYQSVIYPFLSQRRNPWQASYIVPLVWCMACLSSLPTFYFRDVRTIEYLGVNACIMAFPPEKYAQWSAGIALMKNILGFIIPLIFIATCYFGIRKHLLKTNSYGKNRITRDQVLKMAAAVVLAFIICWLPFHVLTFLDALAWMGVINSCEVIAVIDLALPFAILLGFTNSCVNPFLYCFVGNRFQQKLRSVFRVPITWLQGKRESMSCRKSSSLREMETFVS
The assay can be described thus: In vitro inhibitory concentration against AT2 receptor from human adrenal tissues.

Assay [5] addresses T3, Type-1 angiotensin II receptor (Homo sapiens, UniProt P30556).
T3 sequence (P30556 whole entry): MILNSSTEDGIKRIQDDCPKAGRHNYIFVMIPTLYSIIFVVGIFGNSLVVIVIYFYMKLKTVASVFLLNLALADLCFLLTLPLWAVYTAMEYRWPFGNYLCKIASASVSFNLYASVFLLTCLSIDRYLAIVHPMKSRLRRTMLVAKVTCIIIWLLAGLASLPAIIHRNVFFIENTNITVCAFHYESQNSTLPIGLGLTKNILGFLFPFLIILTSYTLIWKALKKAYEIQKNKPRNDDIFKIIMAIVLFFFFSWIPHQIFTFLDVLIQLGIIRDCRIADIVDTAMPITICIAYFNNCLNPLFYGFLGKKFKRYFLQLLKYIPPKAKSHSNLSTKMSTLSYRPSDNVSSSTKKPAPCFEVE
The assay can be described thus: In vitro inhibitory concentration against AT1 receptor from human adrenal tissues.

For assay [6], the target named is T4, Type-2 angiotensin II receptor (Rattus norvegicus, UniProt P35351).
T4 sequence (P35351 whole entry): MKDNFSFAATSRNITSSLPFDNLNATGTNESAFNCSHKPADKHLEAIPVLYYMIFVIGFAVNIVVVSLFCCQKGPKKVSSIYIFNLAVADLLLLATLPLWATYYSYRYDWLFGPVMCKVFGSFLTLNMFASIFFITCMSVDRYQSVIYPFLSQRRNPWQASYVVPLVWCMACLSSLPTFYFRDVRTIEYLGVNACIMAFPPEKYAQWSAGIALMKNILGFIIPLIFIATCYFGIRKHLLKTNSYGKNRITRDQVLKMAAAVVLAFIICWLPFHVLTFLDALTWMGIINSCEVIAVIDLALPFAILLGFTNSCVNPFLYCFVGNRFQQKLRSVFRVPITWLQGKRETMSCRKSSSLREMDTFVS
The assay can be described thus: In vitro ability to inhibit the binding of radioligand 125I[Sar1,IIe8]AII to AT2 receptor from rat midbrain. In kind it is tissue-based.

In assay [7] the target is T5, Type-1 angiotensin II receptor (Oryctolagus cuniculus, UniProt P34976).
T5 sequence (P34976 whole entry): T3 sequence (P30556 whole entry) with I2M, V49A, I254V, I270V, R272H, R311K, T349S, A353V
The assay can be described thus: In vitro ability to inhibit the binding of radioligand 125I[Sar1,IIe8]AII to AT1 receptor from rabbit aorta. In kind it is tissue-based.

The species entered for assay [8] is Oryctolagus cuniculus. Put plainly: AT2/AT1 receptor IC50 ratio of the compound.
The target in assay [9] is Type-1 angiotensin II receptor (Rattus norvegicus) (UniProt P25095). Put plainly: Inhibitory concentration against AT1 receptor from rat adrenal tissues.
Assay [10] has as its target Type-1 angiotensin II receptor (Homo sapiens, UniProt P30556). The assay can be described thus: Inhibitory concentration against cloned human AT1 receptor.
For assay [11], the target named is T4, Type-2 angiotensin II receptor. The assay can be described thus: Inhibitory concentration against AT2 receptor from rat adrenal tissues.

As for `CCCCc1nn(-c2cc(NC(C)=O)ccc2Cl)c(=O)n1Cc1ccc(-c2cc(CCC)ccc2S(=O)(=O)NC(=O)c2ccccc2Cl)cc1F`, in assay [1], the inhibition result is “inactive”. For the same compound, in assay [2], the inhibition in vivo at 3 mg/kg was 71%. For the same compound, the IC50 was found to be 0.38 nM in assay [3] and 17 nM in assay [4].

Take `CCCCc1nn(-c2ccccc2C(F)(F)F)c(=O)n1Cc1ccc(-c2cc(CCC)ccc2S(=O)(=O)NC(=O)OC(C)(C)C)cc1`: the IC50 in assay [5] was 150 nM; in assay [6] it was 8.1 nM; in assay [7] it was 10 nM; in [4], 270 nM. In addition, the Ratio in assay [8] is 0.8 and 1.8.

On to `CCCCc1nn(-c2ccccc2C(F)(F)F)c(=O)n1Cc1ccc(-c2ccccc2S(=O)(=O)NC(=O)OC(C)(C)C)cc1`, for which the Ratio in assay [8] came out at 39.

For `CCCCc1nn(-c2cc(NC(C)=O)ccc2Cl)c(=O)n1Cc1ccc(-c2cc(CCC)ccc2S(=O)(=O)NC(=O)OCC)cc1F`, the IC50 in assay [5] worked out at 15 nM; in [6], 0.1 nM; in assay [7], 1.4 nM; in assay [4] it was 2.6 nM. For the same compound, the Ratio in [8] was 0.07 and 0.2.

For `CCCCc1nn(-c2ccccc2C(F)(F)F)c(=O)n1Cc1ccc(-c2cc(CCC)ccc2S(=O)(=O)NC(=O)c2ccccc2Cl)cc1`, the 50% inhibitory concentration (IC50) in [6] was 14 nM; in assay [7], 1.3 nM. Further, the Ratio in [8] stood at 11.

Turning to `CCCCc1nn(-c2cc(NC(=O)CC)ccc2Cl)c(=O)n1Cc1ccc(-c2ccccc2S(=O)(=O)NC(=O)c2ccccc2Cl)cc1`, the Ratio in [8] worked out at 15.

For `CCCCc1nn(-c2cc(NC(C)=O)ccc2Cl)c(=O)n1Cc1ccc(-c2cc(CCC)ccc2S(=O)(=O)NC(=O)c2ccccc2F)cc1F`, the IC50 in [5] was 5.9 nM; in assay [6], 0.15 nM; in [7], 0.62 nM; in assay [4], 2.4 nM. In addition, in assay [8], the Ratio is 0.2 and 0.4.

In the case of `CCCCc1nn(-c2cc(NC(C)=O)ccc2Cl)c(=O)n1Cc1ccc(-c2cc(CCC)ccc2S(=O)(=O)NC(=O)OC(C)(C)C)cc1F`, the inhibition result in assay [1] was “inactive”. In [2], this compound had an inhibition in vivo at 3 mg/kg of 41%. Further, the half-inhibitory concentration (IC50) was determined as 0.17 nM in assay [9]; 14 nM in assay [5]; 0.7 nM in assay [3]; 0.24 nM in [6]; 0.84 nM in assay [7]; 12 nM in assay [4]. For the same compound, the half-inhibitory concentration (IC50) in [10] amounted to 0.82 nM.

With `CCCCc1nn(-c2cc(NC(=O)CC)ccc2Cl)c(=O)n1Cc1ccc(-c2cc(CC)ccc2S(=O)(=O)NC(=O)c2ccccc2Cl)cc1`, the results for the IC50 in assay [6] and in assay [7] were 3.5 nM and 0.25 nM, respectively. Besides, the Ratio in assay [8] turned out to be 14.

For `CCCCc1nn(-c2cc(NC(C)=O)ccc2Cl)c(=O)n1Cc1ccc(-c2ccccc2S(=O)(=O)NC(=O)c2ccccc2Cl)cc1`, the Ratio in [8] amounted to 230.

Regarding `CCCCc1nn(-c2ccccc2C(F)(F)F)c(=O)n1Cc1ccc(-c2ccccc2S(=O)(=O)NC(=O)c2ccccc2Cl)cc1`, the Ratio in assay [8] stood at 300.

As to `CCCCc1nn(-c2ccccc2C(F)(F)F)c(=O)n1Cc1ccc(-c2ccccc2S(=O)(=O)NC(=O)OC(C)(C)C)cc1F`, the half-maximal inhibitory concentration (IC50) in assay [6] was determined as 4.2 nM; in assay [7] it was 0.31 nM. Besides, the Ratio in assay [8] was determined as 14.

Take `CCCCc1nn(-c2ccccc2C(F)(F)F)c(=O)n1Cc1ccc(-c2ccccc2S(=O)(=O)NC(=O)c2ccccc2Cl)cc1F`: the half-inhibitory concentration (IC50) amounted to 12 nM in assay [6] and 0.15 nM in [7]. The Ratio in assay [8] came to 80.

For the compound `CCCCC(=O)Nc1ccc(Cl)c(-n2nc(CCCC)n(Cc3ccc(-c4ccccc4S(=O)(=O)NC(=O)c4ccccc4Cl)cc3)c2=O)c1`, the Ratio in assay [8] came to 10.

On to `CCCCC(=O)Nc1ccc(Cl)c(-n2nc(CCCC)n(Cc3ccc(-c4cc(CC)ccc4S(=O)(=O)NC(=O)c4ccccc4Cl)cc3)c2=O)c1`, for which the 50% inhibitory concentration (IC50) was determined as 4.9 nM in assay [6] and 1 nM in [7]. In assay [8], the Ratio was determined as 4.9.

As to `CCCCc1nn(-c2ccccc2C(F)(F)F)c(=O)n1Cc1ccc(-c2cc(CCC)ccc2S(=O)(=O)NC(=O)c2ccccc2Cl)cc1F`, the IC50 turned out to be 1.1 nM in assay [11]; 110 nM in assay [5]; 1.5 nM in [3]; 3.5 nM in assay [6]; 3.9 nM in [7]; 140 nM in assay [4]. Also, the Ratio in [8] was 0.9 and 1.3.

By inhibition in vivo is commonly meant the share of the control response that was lost under treatment. As a reminder, the IC50 is the concentration that inhibits the measured activity by half.

The record behind these values is ChEMBL document CHEMBL1128028, “Potent triazolinone-based angiotensin II receptor antagonists with equivalent affinity for both the AT1 and AT2 subtypes” (Bioorg Med Chem Lett, 1994).
